The Deep4Chem optical property database

Experiment: solvent given as SMILES

For `CCCCCCCCCCCCCCCCOc1cc(C#Cc2ccc3ccccc3c2-c2c(C#Cc3cc(OCCCCCCCCCCCCCCCC)c(C#Cc4ccc(C=C(C#N)C#N)cc4)cc3OCCCCCCCCCCCCCCCC)ccc3ccccc23)c(OCCCCCCCCCCCCCCCC)cc1C#Cc1ccc(C=C(C#N)C#N)cc1`, the fluorescence lifetime (in Brc1ccccc1) was 2.8 ns, the fluorescence lifetime (in C1CCCCC1) was 2.02 ns and the fluorescence lifetime (in C1CCOC1) was 1.25 ns. The fluorescence lifetime (in C1COCCO1) was 3.06 ns, the fluorescence lifetime (in CCCCCC) was 2.15 ns and the fluorescence lifetime (in CCCCCCCCO) was 0.79 ns. The fluorescence lifetime (in CCCCOCCCC) was 2.74 ns, the fluorescence lifetime (in CCOC(C)=O) was 1.51 ns and the fluorescence lifetime (in CCOCC) was 3.29 ns. For the same molecule, the fluorescence lifetime (in Cc1ccccc1) was 2.59 ns, the fluorescence lifetime (in ClC(Cl)(Cl)Cl) was 2.16 ns and the fluorescence lifetime (in ClC(Cl)Cl) was 2.35 ns. The fluorescence lifetime (in ClCCl) was 0.79 ns.
In the case of `Cc1ccc(C2=C3C=CC(C#Cc4ccccc4)=[N+]3[B-](F)(F)n3c(C#Cc4ccccc4)ccc32)cc1`, the fluorescence lifetime (in C1CCCCC1) is reported as 6.58 ns, the fluorescence lifetime (in C1CCOC1) is reported as 6.62 ns and the fluorescence lifetime (in C1COCCO1) is reported as 6.44 ns. The fluorescence lifetime (in CCOC(C)=O) was 6.74 ns, the fluorescence lifetime (in CO) was 6.51 ns and the fluorescence lifetime (in Cc1ccccc1) was 6.18 ns. The fluorescence lifetime (in ClC(Cl)Cl) was 6.66 ns.
Molecule `Cc1ccc(N(c2ccccc2)c2ccc3ccc4c(N(c5ccccc5)c5ccc(C)cc5)ccc5ccc2c3c54)cc1` has a fluorescence lifetime (in ClCCl) of 6.2 ns.
`O=C([O-])c1c2ccccc2c(C(=O)[O-])c2ccccc12` showed a fluorescence lifetime (in CN(C)C=O) of 2.2 ns.
`COC(=O)C(Cc1ccc2oc(-c3ccc(N(C)C)cc3)nc2c1)NC(=O)OC(C)(C)C` (configuration not stated) showed a fluorescence lifetime (in C1CCCCC1) of 1.02 ns, a fluorescence lifetime (in C1CCOC1) of 1.21 ns and a fluorescence lifetime (in C1COCCO1) of 1.21 ns. For the same molecule, the fluorescence lifetime (in CC1CCCO1) was 1.15 ns, the fluorescence lifetime (in CC1COC(=O)O1) was 1.41 ns and the fluorescence lifetime (in CC#N) was 1.32 ns. The fluorescence lifetime (in CC(C)=O) was 1.26 ns, the fluorescence lifetime (in CC(C)CC(C)(C)C) was 1.02 ns and the fluorescence lifetime (in CC(C)CO) was 1.29 ns. It also gave a fluorescence lifetime (in CC(C)O) of 1.3 ns, a fluorescence lifetime (in CC(C)OC(C)C) of 1.2 ns and a fluorescence lifetime (in CC(O)CO) of 1.32 ns. For the same molecule, the fluorescence lifetime (in CCC(C)CC) was 1 ns, the fluorescence lifetime (in CCCCC) was 1.12 ns and the fluorescence lifetime (in CCCCCC) was 1.04 ns. For the same molecule, the fluorescence lifetime (in CCCCCCCCC) was 1.08 ns, the fluorescence lifetime (in CCCCCCCCCC) was 1.09 ns and the fluorescence lifetime (in CCCCCCCO) was 1.3 ns. It also gave a fluorescence lifetime (in CCCCCCO) of 1.32 ns, a fluorescence lifetime (in CCCCCO) of 1.25 ns and a fluorescence lifetime (in CCCCO) of 1.29 ns. It also gave a fluorescence lifetime (in CCO) of 1.35 ns, a fluorescence lifetime (in CCOC(C)=O) of 1.19 ns and a fluorescence lifetime (in CCOCC) of 1.24 ns. It also gave a fluorescence lifetime (in CN(C)C=O) of 1.28 ns, a fluorescence lifetime (in CO) of 1.26 ns and a fluorescence lifetime (in COCCOC) of 0.88 ns. For the same molecule, the fluorescence lifetime (in CS(C)=O) was 1.26 ns, the fluorescence lifetime (in Cc1ccccc1) was 1.04 ns and the fluorescence lifetime (in Cc1ccccc1C) was 1.07 ns. For the same molecule, the fluorescence lifetime (in ClC(Cl)Cl) was 0.79 ns, the fluorescence lifetime (in ClCCl) was 1.23 ns and the fluorescence lifetime (in NC=O) was 1.14 ns. The fluorescence lifetime (in OC1CCCCC1) was 1.28 ns, the fluorescence lifetime (in OCCO) was 1.13 ns and the fluorescence lifetime (in c1ccccc1) was 1.08 ns.
With `O=S1(=O)c2ccc(-c3ccc4c(c3)c3ccccc3n4-c3ccccc3)cc2C2(c3cc(-c4ccc5c(c4)c4ccccc4n5-c4ccccc4)ccc31)c1cc(-c3ccc4c(c3)c3ccccc3n4-c3ccccc3)ccc1S(=O)(=O)c1ccc(-c3ccc4c(c3)c3ccccc3n4-c3ccccc3)cc12` the fluorescence lifetime (in CC1CCCO1) was 100 ns.
Molecule `CCCCCCN(CCCCCC)c1ccc(C#Cc2ccc(C#Cc3ccc(-c4ccc(C#Cc5ccc(C#Cc6ccc(N(CCCCCC)CCCCCC)cc6)cc5)cc4)cc3)cc2)cc1` has a fluorescence lifetime (in Cc1ccccc1) of 0.8 ns.
Work on `CCCCCCN1C(=O)c2cccc3c(-c4cc5ccccc5s4)ccc(c23)C1=O` yielded a fluorescence lifetime (in ClC(Cl)Cl) of 0.86 ns.
Molecule `c1ccc2c(c1)c1ccccc1c1[nH]c(-c3ccc(-c4nc5c6ccccc6c6ccccc6c5[nH]4)cc3)nc21` has a fluorescence lifetime (in CS(C)=O) of 1.25 ns.
`CCN(CC)c1ccc2cc(C#N)/c(=N\C(=O)c3ccccc3)oc2c1` showed a fluorescence lifetime (in ClCCl) of 3 ns.
Work on `CCCN1C(=O)c2c3c(c4c(c2C1=O)CCc1cc(-c2ccc(N(C)C)cc2)c(OC)cc1-4)-c1cc(OC)c(-c2ccc(N(C)C)cc2)cc1CC3` yielded a fluorescence lifetime (in C1CCCCC1) of 5.13 ns, a fluorescence lifetime (in C1CCOC1) of 0.93 ns and a fluorescence lifetime (in CCOC(C)=O) of 0.85 ns. The fluorescence lifetime (in Cc1ccccc1) was 5.64 ns and the fluorescence lifetime (in ClCCl) was 0.38 ns.
In the case of `COc1nc(Nc2cc3ccc4cccc5ccc(c2)c3c45)nc(OC)n1`, the fluorescence lifetime (in CCCCCCC) is reported as 112 ns.
`CC1=[N+]2C(=C(c3ccc(Br)cc3)c3ccc(C)n3[B-]2(F)F)C=C1c1cc2n(c1)[B-](F)(F)[N+]1=CC=CC1=C2c1c(C)cc(C)cc1C` gave a fluorescence lifetime (in C1CCCCC1) of 3.01 ns and a fluorescence lifetime (in CCOC(C)=O) of 0.938 ns.
Work on `c1cc2ccc3ccc4cc3c2cc1c1ccc2ccc3ccc(cc3c2c1)c1ccc2ccc3ccc4cc3c2c1` yielded a fluorescence lifetime (in Cc1ccccc1) of 6.5 ns.
